Test results: US20250333509A1, “METHODS FOR TREATING CANCER, OR VON-HIPPEL LINDAU DISEASE USING A COMBINATION OF A TIGIT ANTAGONIST, A PD-1 ANTAGONIST, AND A HIF-2-ALPHA INHIBITOR” (MERCK SHARP & DOHME LLC, priority 2022, published 2025)

Key:
[1] = test system: RCC associated with VHL disease, CNS hemangioblastomas, pancreatic neuroendocrine tumors; settings: cited from earlier work
[2] = AE profile of belzutifan; cited from earlier work
CT26 tumors = test: CT26 mouse syngeneic tumor model: tumor growth inhibition and tumor regressions; assay type: in vivo; settings: CT26 tumors in female BALB/cAnn mice, 10 per group, anti-PD-1 5 mg/kg ip every 5 days, anti-TIGIT 10 mg/kg ip every 5 days, belzutifan 3 mg/kg orally twice daily; for Tumor growth inhibition (TGI) % at Day 16: Day 16 when control animals exited study; for Number of complete tumor regressions (CRs) at end of study / Number of partial tumor regressions (PRs) at end of study: end of study (Day 43)
Source text: The present Example describes preclinical data using a TIGIT antagonist and a PD-1 antagonist in combination with belzutifan, using mouse syngeneic models.
Prior to treatment initiation, female BALB/cAnn mice aged 7 weeks weighing between 18 to 21 grams were anesthetized and injected subcutaneously into the rear flank with 0.3×10^6 log-phase sub-confluent CT26 cells. Mice were pair-matched into treatment groups consisting of 10 mice per group when the mean tumor volume of inoculated CT26 tumors reached approximately 150 mm^3.
Treatment groups consisted of: • 1) Isotype mouse IgG1 (mIgG1) antibody+Isotype mouse IgG2a (mIgG2a) antibody+0.5% methylcellulose (vehicle); • 2) anti-PD-1 mIgG1 antibody+Isotype mIgG2a antibody+vehicle; • 3) anti-TIGIT mIgG2a antibody+Isotype mIgG1 antibody+vehicle; • 4) Isotype mIgG1 antibody+Isotype mIgG2a antibody+belzutifan; • 5) anti-PD-1 mIgG1 antibody+anti-TIGIT mIgG2a antibody+vehicle; • 6) anti-PD-1 mIgG1 antibody+Isotype mIgG2a antibody+belzutifan; • 7) Isotype mIgG1 antibody+anti-TIGIT mIgG2a antibody+belzutifan; and • 8) anti-PD-1 mIgG1 antibody+anti-TIGIT mIgG2a antibody+belzutifan.
Isotype mIgG1 and anti-PD-1 antibodies were dosed intraperitoneally every 5 days at 5 mg/kg body weight. Isotype mIgG2a and anti-TIGIT antibodies were dosed intraperitoneally every 5 days at 10 mg/kg body weight. Belzutifan was dosed orally twice daily at 3 mg/kg body weight. Start of treatments was considered Day 0 and dosing based on schedules continued as described until Day 43. Caliper measurements of tumors and body weights were captured twice weekly. Statistical analyses were performed by 2-sided student t-test of final 2 groups at Day 43 when study ended.

[3] = patients with RCC associated with VHL disease who received belzutifan

CS(=O)(=O)c1ccc(Oc2cc(F)cc(C#N)c2)c2c1[C@H](O)[C@H](F)[C@@H]2F [belzutifan, 3-[(1S,2S,3R)-2,3-Difluoro-1-hydroxy-7-methylsulfonyl-indan-4-yl]oxy-5-fluoro-benzonitrile]
patients with a response after treatment ([1]; patients with CNS hemangioblastomas): 30%
patients with a confirmed objective response [1, 3]: 49%
reduction in renal tumor size [1, 3]: most patients had a reduction in renal tumor size
patients who responded after treatment ([1]; patients with pancreatic neuroendocrine tumors): 91%
adverse events associated with treatment [2]: anemia and hypoxia have been associated with belzutifan treatment
Tumor growth inhibition (TGI) % at Day 16 (CT26 tumors): 5.8%
Number of complete tumor regressions (CRs) at end of study (CT26 tumors): 0 CRs, 0 PRs
Number of partial tumor regressions (PRs) at end of study (CT26 tumors): 0 CRs, 0 PRs

B1: Anti-TIGIT (antibody)
heavy: QVQLMESGPGLVQPSQTLSLTCTVSGFPLTSYTVHWVRQPPGKGLEWIGAIWSSGSTDYNSALKSRLNINRDSSKSQVFLKMNSLQTEDTAIYFCTKSGWAFFDYWGQGVMVTVSSAKTTAPSVYPLAPVCGDTTGSSVTLGCLVKGYFPEPVTLTWNSGSLSSGVHTFPAVLQSDLYTLSSSVTVTSSTWPSQSITCNVAHPASSTKVDKKIEPRGPTIKPCPPCKCPAPNLLGGPSVFIFPPKIKDVLMISLSPIVTCVVVDVSEDDPDVQISWFVNNVEVHTAQTQTHREDYNSTLRVVSALPIQHQDWMSGKEFKCKVNNKDLPAPIERTISKPKGSVRAPQVYVLPPPEEEMTKKQVTLTCMVTDFMPEDIYVEWTNNGKTELNYKNTEPVLDSDGSYFMYSKLRVEKKNWVERNSYSCSVVHEGLHNHHTTKSFSRTPGK
light: DIQMTQSPSLLSASVGDRVTLNCIASQNIYKSLAWYQLKLGEAPKLLIYNANSLQAGIPSRFSGSGSGTDFALTISGLQPEDVATYFCQQYSGGYTFGAGTKLELKRADAAPTVSIFPPSSEQLTSGGASVVCFLNNFYPKDINVKWKIDGSERQNGVLNSWTDQDSKDSTYSMSSTLTLTKDEYERHNSYTCEATHKTSTSPIVKSFNRNEC
Tumor growth inhibition (TGI) % at Day 16 (CT26 tumors): 47.4%
Number of complete tumor regressions (CRs) at end of study (CT26 tumors): 0 CRs, 0 PRs
Number of partial tumor regressions (PRs) at end of study (CT26 tumors): 0 CRs, 0 PRs

B2: Anti-PD-1 (antibody)
heavy: EVQLVESGGGLVQPGGSLKLSCAASGFTFSNSGLAWVRQAPEKGLEWVATITYNGTSTYYRDSVKGRFTISRDNAKNTLYLQMSSLRSEDTATYYCARWVPGSGNFDYWGQGTLVTVSSAKTTPPSVYPLAPGSAAQTNSMVTLGCLVKGYFPEPVTVTWNSGSLSSGVHTFPAVLQSDLYTLSSSVTVPSSTWPSETVTCNVAHPASSTKVDKKIVPRDCGCKPCICTVPEVSSVFIFPPKPKDVLTITLTPKVTCVVVAISKDDPEVQFSWFVDDVEVHTAQTQPREEQFNSTFRSVSELPIMHQDWLNGKEFKCRVNSAAFPAPIEKTISKTKGRPKAPQVYTIPPPKEQMAKDKVSLTCMITDFFPEDITVEWQWNGQPAENYKNTQPIMDTDGSYFVYSKLNVQKSNWEAGNTFTCSVLHEGLHNHHTEKSLSHSPGK
light: DIVLTQSPASLAVSLGQRATISCRASQSVTISRYTLMHWYQQKPGQPPKLLIYRASNLASGIPARFSGSGSGTDFTLNIHPVEEDDAATYYCQQSRESPWTFGGGTKLEIKRADAAPTVSIFPPSSEQLTSGGASVVCFLNNFYPKDINVKWKIDGSERQNGVLNSWTDQDSKDSTYSMSSTLTLTKDEYERHNSYTCEATHKTSTSPIVKSFNRNEC
Tumor growth inhibition (TGI) % at Day 16 (CT26 tumors): 4.8%
Number of complete tumor regressions (CRs) at end of study (CT26 tumors): 0
Number of partial tumor regressions (PRs) at end of study (CT26 tumors): 1
